Test results from the Deep4Chem optical property database.
Several values for one entry are separate records, joined by “and”; a condition that tells them apart may be missing. Equal entries are not always repeated.

Test: solvent given as SMILES

`CC(C)(C)c1ccc(-c2nc3c4ccccc4c4ccccc4c3n2-c2ccc(C(C)(C)C)cc2)cc1` gave an emission maximum (in C1CCOC1) of 390 nm, an emission maximum (in C1COCCO1) of 389 nm and an emission maximum (in CC#N) of 389 nm. The emission maximum (in CCCCCC) was 385 nm, the emission maximum (in CCCCOCCCC) was 389 nm and the emission maximum (in CCN(CC)CC) was 388 nm. The emission maximum (in CCOC(C)=O) was 390 nm, the emission maximum (in CCOCC) was 388 nm and the emission maximum (in CN(C)C=O) was 391 nm. The emission maximum (in Cc1ccccc1) was 390 nm, the emission maximum (in ClC=C(Cl)Cl) was 392 nm and the emission maximum (in ClCCl) was 392 nm.

`Cc1cscc1-c1cc2c3cc(-c4cscc4C)c4nc(C(F)(F)C(F)(F)C(F)(F)F)nc5c(-c6cscc6C)cc(c6cc(-c7cscc7C)c7nc(C(F)(F)C(F)(F)C(F)(F)F)nc1c7c26)c3c45` gave an emission maximum (in C1CCOC1) of 551 nm.

Work on `CCCCCCCCN1C(=O)c2ccc3c4c(-c5ccc6c(c5)c5ccccc5n6-c5ccccc5)cc5c6c(ccc(c7c(-c8ccc9c(c8)c8ccccc8n9-c8ccccc8)cc(c2c37)C1=O)c64)C(=O)N(CCCCCCCC)C5=O` yielded an emission maximum (in ClC(Cl)Cl) of 689 nm.

In the case of `CC1=[N+]2C(=C(c3ccc(N4CCOCC4)cc3)c3ccc(C)n3[B-]2(F)F)C=C1`, the emission maximum (in C1CCCCC1) is reported as 520 nm, the emission maximum (in C1CCOC1) is reported as 695 nm and 528 nm and the emission maximum (in CC#N) is reported as 534 nm. It also gave an emission maximum (in CC(=O)C(C)(C)C) of 530 nm, an emission maximum (in CC(C)=O) of 517 nm and an emission maximum (in CCCCCC) of 520 nm. It also gave an emission maximum (in CCOC(C)=O) of 520 nm, an emission maximum (in CO) of 521 nm and an emission maximum (in Cc1ccccc1) of 524 nm. The emission maximum (in ClC(Cl)Cl) was 531 nm.

Compound `CCCSc1ccc2n1[B-](F)(F)[N+]1=CC=CC1=C2c1ccccc1` has an emission maximum (in CC#N) of 585 nm, an emission maximum (in CCCCCC) of 588 nm and an emission maximum (in CCOC(C)=O) of 589 nm. It also gave an emission maximum (in CO) of 583 nm and an emission maximum (in ClCCl) of 594 nm.

Compound `CN1C(=CC2=C([O-])C(=Cc3oc4ccccc4[n+]3C)C2=C(C#N)C#N)Sc2ccccc21` has an emission maximum (in ClC(Cl)Cl) of 682 nm.

`CC1=CC(C)=[N+]2C1=C(c1ccc(N3CCOCC3)cc1)c1c(C)cc(C)n1[B-]2(F)F` showed an emission maximum (in C1CCOC1) of 514 nm, an emission maximum (in CC#N) of 511 nm and an emission maximum (in CC(=O)C(C)(C)C) of 520 nm. For the same compound, the emission maximum (in CC(C)=O) was 516 nm, the emission maximum (in CCCCCC) was 511 nm and the emission maximum (in CCOC(C)=O) was 517 nm. The emission maximum (in CO) was 514 nm.

For `c1ccc2c(c1)ccc1c3ccccc3ccc21`, the emission maximum (in ClCCl) was 366 nm.

Work on `COC(=O)c1ccc(NC(=O)c2ccc(N(C)C)cc2)cc1` yielded an emission maximum (in C1CCCCC1) of 434 nm, an emission maximum (in C1CCOC1) of 470 nm and an emission maximum (in CC#N) of 516 nm. The emission maximum (in CCOCC) was 456 nm.

In the case of `ClP1(Cl)=N[P@](Cl)(Oc2ccc3ccc4cccc5ccc2c3c45)=N[P@@](Cl)(Oc2ccc3ccc4cccc5ccc2c3c45)=N1`, the emission maximum (in ClCCl) is reported as 419 nm.

Work on `O=c1oc2ccccc2c2c1c(=O)oc1c3ccccc3cc(O)c12` yielded an emission maximum (in ClCCl) of 533 nm.

Compound `CC(C)[Si](C#Cc1ccc(C#C[Si](C(C)C)(C(C)C)C(C)C)c2nc3c(nc12)C1c2ccccc2C3c2ccccc21)(C(C)C)C(C)C` has an emission maximum (in CCCCCC) of 404 nm.

Compound `O=C1NC(=O)c2ccc(N3CCCCC3)c3cccc1c23` has an emission maximum (in ClC(Cl)Cl) of 517 nm.

Work on `COc1ccc(/C=C/C2=CC(/C=C/c3ccc(OC)cc3)=[N+]3C2=C(c2ccc(-c4ccc5ccccc5n4)s2)c2c(/C=C/c4ccc(OC)cc4)cc(/C=C/c4ccc(OC)cc4)n2[B-]3(F)F)cc1` yielded an emission maximum (in C1COCCO1) of 732 nm.

In the case of `CC1(C)c2ccccc2N(c2ccc(B3c4ccccc4Oc4ccccc43)cc2)c2ccccc21`, the emission maximum (in Cc1ccccc1) is reported as 472 nm.

`N#Cc1c(N2CCCCC2)cc(-c2ccc(O)cc2)c2c1-c1cccc3cccc-2c13` showed an emission maximum (in C1CCCCC1) of 527 nm, an emission maximum (in C1COCCO1) of 540 nm and an emission maximum (in CC#N) of 569 nm. It also gave an emission maximum (in CCO) of 548 nm, an emission maximum (in CN(C)C=O) of 573 nm and an emission maximum (in CO) of 554 nm. It also gave an emission maximum (in CS(C)=O) of 580 nm, an emission maximum (in Cc1ccccc1) of 530 nm and an emission maximum (in ClCCl) of 545 nm. For the same compound, the emission maximum (in O) was 550 nm.

`CNc1ccc(/C=C/C(=O)OC)cc1` showed an emission maximum (in O) of 470 nm.

`C(=C\c1c2ccccc2cc2ccccc12)/c1ccc2ccccc2n1` gave an emission maximum (in CC1CCCCC1) of 492 nm and an emission maximum (in CC#N) of 510 nm.

`COc1cc2c3c4c(c5ccc(C(C)(C)C)cc5c5c(OC)cc(OC)c(c2c(OC)c1OC)c45)=[N+]1C3=Nc2c3c4cc(OC)c(OC)c(OC)c4c4c(OC)cc(OC)c5c6cc(C(C)(C)C)ccc6c(c3c54)n2[B-]1(F)F` showed an emission maximum (in Cc1ccccc1) of 907 nm.

For `CCn1c2ccc(S(=O)(=O)O)cc2c(=O)c2cc3c(cc21)c(=O)c1cc(S(=O)(=O)O)ccc1n3CCCCCC(=O)O`, the emission maximum (in O) was 559 nm.

For `Clc1ccc(/C=C(\c2ccccc2)c2nc3ccccc3o2)cc1`, the emission maximum (in CO) was 420 nm.

Work on `Cc1ccc(N(CC(=O)[O-])CC(=O)[O-])c(OCCOc2cc3cc(-c4ncc(C(=O)[O-])o4)oc3cc2N(CC(=O)[O-])CC(=O)[O-])c1` yielded an emission maximum (in O) of 500 nm.

In the case of `CC(C)(C)c1cccc2c1oc1nc3oc4ccc(-n5c6ccccc6c6ccccc65)cc4c3cc12`, the emission maximum (in ClC(Cl)Cl) is reported as 419 nm.

Compound `CCn1c(-c2ccc(-c3ccc(-c4ccc(-c5n(CC)c6cc(C)ccc6[n+]5CC)cc4)cc3)cc2)[n+](CC)c2ccc(C)cc21` has an emission maximum (in O) of 397 nm.

For `Cc1ccc(-c2c3ccc([nH]3)c3nc(c(-c4ccc(C#N)cc4)c4ccc([nH]4)c4ccc([nH]4)c(-c4ccc(C)cc4)c4ccc2o4)C=C3)cc1`, the emission maximum (in C1CCOC1) was 730 nm, the emission maximum (in Cc1ccccc1) was 722 nm and the emission maximum (in c1ccccc1) was 722 nm.

`N#Cc1cc(-n2c3ccccc3c3cccnc32)c(-n2c3ccccc3c3cccnc32)cc1C#N` showed an emission maximum (in CC#N) of 504.42 nm, an emission maximum (in CCCCCC) of 386.98 nm and an emission maximum (in Cc1ccccc1) of 417.44 nm. It also gave an emission maximum (in ClCCl) of 468.37 nm and an emission maximum (in c1cc(-n2c3ccccc3c3ccccc32)cc(-n2c3ccccc3c3ccccc32)c1) of 441.06 nm.

Work on `Clc1ccccc1-c1nc2sc3ccccc3c2s1` yielded an emission maximum (in CS(C)=O) of 412 nm.

`O=C(O)c1ccc(-c2cnc(-c3ccc(N(c4ccccc4)c4ccccc4)cc3)s2)cc1` showed an emission maximum (in CO) of 496 nm.

Work on `F[B-]1(F)n2c(cc(Br)c2Br)C(c2ccccc2)=C2C=C(Br)C(Br)=[N+]21` yielded an emission maximum (in ClC(Cl)Cl) of 570 nm.
